The record followed here is patent US7544694B2, “Substituted diaza-spiro-[5.5]-undecane derivatives and their use as neurokinin antagonists” (Janssen Pharmaceutica N.V., priority 2004, dated 2009).

Type in all cases: cell-based
One experiment has as its target T1, NK2 (Homo sapiens, UniProt P21452).
T1 sequence (P21452 1-398): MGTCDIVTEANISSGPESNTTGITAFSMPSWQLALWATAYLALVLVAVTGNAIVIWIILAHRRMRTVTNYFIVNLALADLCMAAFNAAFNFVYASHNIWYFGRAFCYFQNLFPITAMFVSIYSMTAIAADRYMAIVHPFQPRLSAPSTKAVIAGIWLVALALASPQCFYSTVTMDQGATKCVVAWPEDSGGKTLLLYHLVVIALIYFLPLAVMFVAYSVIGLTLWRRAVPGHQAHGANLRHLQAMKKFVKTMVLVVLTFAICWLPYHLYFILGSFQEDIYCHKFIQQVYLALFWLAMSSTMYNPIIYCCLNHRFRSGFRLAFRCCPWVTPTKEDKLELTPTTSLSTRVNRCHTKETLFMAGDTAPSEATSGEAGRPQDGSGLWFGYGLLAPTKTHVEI
The experiment can be described thus: Signal transduction (ST), intracellular Ca++ (FLIPR), NK2. The conditions noted are these: antagonist, read-out: NK2 pIC50 (converted).

For another experiment, the target named is T2, NK3 (Homo sapiens, UniProt P29371).
T2 sequence (P29371 1-465): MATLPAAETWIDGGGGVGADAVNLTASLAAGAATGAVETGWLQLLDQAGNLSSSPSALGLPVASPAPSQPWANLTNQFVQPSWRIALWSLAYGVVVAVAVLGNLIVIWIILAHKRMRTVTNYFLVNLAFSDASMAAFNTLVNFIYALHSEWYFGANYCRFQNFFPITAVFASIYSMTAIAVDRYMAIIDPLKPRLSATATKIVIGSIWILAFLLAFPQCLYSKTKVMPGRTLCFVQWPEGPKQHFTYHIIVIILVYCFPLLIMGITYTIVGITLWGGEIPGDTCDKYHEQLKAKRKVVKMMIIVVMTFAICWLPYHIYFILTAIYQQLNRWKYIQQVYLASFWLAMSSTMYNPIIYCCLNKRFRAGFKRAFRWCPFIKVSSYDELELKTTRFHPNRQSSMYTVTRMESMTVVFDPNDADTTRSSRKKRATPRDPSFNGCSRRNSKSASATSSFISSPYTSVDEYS
Nature of the experiment: Signal transduction (ST), intracellular Ca++ (FLIPR), NK3. The following applies: antagonist, read-out: NK3 pIC50 (converted).

A further experiment deals with NK1 (Homo sapiens, UniProt P25103). Nature of the experiment: Signal transduction (ST), intracellular Ca++ (FLIPR), functional NK1 antagonistic activity. The following applies: antagonist, read-out: NK1 pIC50 (converted). The essentials:
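Confluent cells were loaded with 2 μM Fluo3 for 1 h at 37° C, then washed into Krebs buffer pH 7.4 with 1.25 mM CaCl2 and 2.5 mM probenecid. Antagonists were preincubated 20 min at RT before agonist addition. Peak Ca++ transients were read by FLIPR, with EC50 or IC50 from sigmoidal non-linear regression.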

Sequence of NK1 (P25103 whole entry): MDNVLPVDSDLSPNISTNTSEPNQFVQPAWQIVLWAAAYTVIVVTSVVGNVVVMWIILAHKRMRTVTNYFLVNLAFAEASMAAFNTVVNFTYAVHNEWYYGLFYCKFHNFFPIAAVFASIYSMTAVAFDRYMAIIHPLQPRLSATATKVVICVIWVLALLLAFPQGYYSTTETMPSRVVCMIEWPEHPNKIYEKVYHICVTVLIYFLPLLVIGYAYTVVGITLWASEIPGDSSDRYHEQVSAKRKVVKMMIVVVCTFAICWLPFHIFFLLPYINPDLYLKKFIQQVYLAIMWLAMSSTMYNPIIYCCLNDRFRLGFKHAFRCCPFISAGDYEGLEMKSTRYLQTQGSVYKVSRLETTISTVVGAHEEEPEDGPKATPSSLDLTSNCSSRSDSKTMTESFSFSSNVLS

`O=C1CCC(C(=O)N2CCC3(CC2)CCN([C@H]2CCN(C(=O)c4cc(C(F)(F)F)cc(C(F)(F)F)c4)[C@H](Cc4ccccc4)C2)CC3)=NN1` [Compound 58]: the IC50 was more than 10000 nM on NK2, more than 10000 nM at NK3 and 64.6 nM on NK1.
On to `O=C(c1cc(C(F)(F)F)cc(C(F)(F)F)c1)N1CC[C@H](N2CCC3(CC2)CCN(S(=O)(=O)c2ccc(C(F)(F)F)cc2)CC3)C[C@H]1Cc1ccccc1` [Compound 117], for which the figures for the IC50 at NK2, on NK3 and at NK1 were more than 10000 nM, more than 10000 nM and 447 nM, respectively.
For the compound `O=C(C1CCOC1)N1CCC2(CC1)CCN([C@H]1CCN(C(=O)c3cc(C(F)(F)F)cc(C(F)(F)F)c3)[C@H](Cc3ccc(Cl)c(Cl)c3)C1)CC2` (stereo partly drawn) [Compound 132], the IC50 on NK2 is 1700 nM; on NK3, 912 nM; at NK1, 9.55 nM.
For the compound `O=C(c1ccc(=O)[nH]c1)N1CCC2(CC1)CCN([C@H]1CCN(C(=O)c3cc(C(F)(F)F)cc(C(F)(F)F)c3)[C@H](Cc3ccccc3)C1)CC2` [Compound 57], the IC50 is 1910 nM on NK2, more than 10000 nM on NK3 and 151 nM on NK1.
Taken in the same sequence, the figures for `CC1(C(=O)N2CCC3(CC2)CCN([C@H]2CCN(C(=O)c4cc(C(F)(F)F)cc(C(F)(F)F)c4)[C@H](Cc4ccccc4)C2)CC3)CCCCC1` [Compound 37] were 8130 nM, more than 10000 nM and 95.5 nM.
Taken in the same sequence, the figures for `O=C(C1CCOC1)N1CCCC2(CCN([C@H]3CCN(C(=O)c4cc(C(F)(F)F)cc(C(F)(F)F)c4)[C@H](Cc4ccccc4)C3)CC2)C1` (stereo partly drawn) [Compound 174] were 6920 nM, more than 10000 nM and 40.7 nM.
Taken in the same sequence, the figures for `Cc1cc(=O)oc(C)c1C(=O)N1CCC2(CC1)CCN([C@H]1CCN(C(=O)c3cc(C(F)(F)F)cc(C(F)(F)F)c3)[C@H](Cc3ccccc3)C1)CC2` [Compound 47] were approximately 10000 nM, more than 10000 nM and 66.1 nM.
`Cn1cnc(C(=O)N2CCC3(CC2)CCN([C@H]2CCN(C(=O)c4cc(C(F)(F)F)cc(C(F)(F)F)c4)[C@H](Cc4ccccc4)C2)CC3)c1` [Compound 34]: the IC50 at NK2 was 6170 nM; on NK3, more than 10000 nM; on NK1 it was 191 nM.
Regarding `O=C(c1cccnc1)N1CCC2(CC1)CCN([C@H]1CCN(C(=O)c3cc(C(F)(F)F)cc(C(F)(F)F)c3)[C@H](Cc3ccccc3)C1)CC2` [Compound 50], the IC50 on NK2 is 2630 nM; at NK3, more than 10000 nM; at NK1 it was 77.6 nM.
The like results for `O=C(c1cc(C(F)(F)F)cc(C(F)(F)F)c1)N1CC[C@H](N2CCC3(CC2)CCN(S(=O)(=O)c2ccsc2)CC3)C[C@H]1Cc1ccccc1` [Compound 93] were, in that order, 1100 nM, 501 nM and 25.7 nM.
For `CC(C)(C)C(=O)N1CCC2(CC1)CCN([C@@H]1CCN(C(=O)c3cc(C(F)(F)F)cc(C(F)(F)F)c3)[C@H](Cc3ccccc3)C1)CC2` [Compound 8], the IC50 at NK2 was 2820 nM; on NK3, 4470 nM; at NK1 it was 43.7 nM.
Taken in the same sequence, the figures for `O=C1CC2(CCN1CC1CCC1)CCN([C@@H]1CCN(C(=O)c3cc(C(F)(F)F)cc(C(F)(F)F)c3)[C@H](Cc3ccccc3)C1)CC2` [Compound 197] were 2880 nM, 6460 nM and 191 nM.
The like results for `CC(C)(C)OC(=O)N1CCCC1C(=O)N1CCC2(CCN(C[C@H]3CCN(C(=O)c4cc(C(F)(F)F)cc(C(F)(F)F)c4)[C@H](Cc4ccccc4)C3)CC2)CC1` (stereo partly drawn) [Compound 181] were, in that order, 7080 nM, more than 10000 nM and 33.9 nM.
Consider `O=C(C1CCCC1)N1CCC2(CC1)CCN([C@@H]1CCN(C(=O)c3cc(C(F)(F)F)cc(C(F)(F)F)c3)[C@H](Cc3ccccc3)C1)CC2` [Compound 18], for which the IC50 on NK2 was 1200 nM; at NK3, 4680 nM; at NK1, 20.4 nM.
The like results for `CS(=O)(=O)c1ccccc1S(=O)(=O)N1CCC2(CCN([C@H]3CCN(C(=O)c4cc(C(F)(F)F)cc(C(F)(F)F)c4)[C@H](Cc4ccccc4)C3)CC2)CC1` [Compound 125] were, in that order, 5130 nM, 6920 nM and 158 nM.
Regarding `COc1ccc(S(=O)(=O)N2CCC3(CCN([C@H]4CCN(C(=O)c5cc(C(F)(F)F)cc(C(F)(F)F)c5)[C@H](Cc5ccccc5)C4)CC3)CC2)cc1OC` [Compound 122], the figures for the IC50 on NK2, at NK3 and at NK1 were 3980 nM, more than 10000 nM and 44.7 nM, respectively.
As to `O=C(C1CCOC1)N1CCC2(CC1)CCN([C@H]1CCN(C(=O)c3cc(C(F)(F)F)cc(C(F)(F)F)c3)[C@H](Cc3ccc(F)c(F)c3)C1)CC2` (stereo partly drawn) [Compound 137], the IC50 is 3470 nM on NK2, 1700 nM on NK3 and 27.5 nM at NK1.
For `Cc1nc2ccc(C(=O)N3CCC4(CC3)CCN([C@H]3CCN(C(=O)c5cc(C(F)(F)F)cc(C(F)(F)F)c5)[C@H](Cc5ccccc5)C3)CC4)cc2[nH]1` [Compound 67], the IC50 is 9770 nM on NK2, more than 10000 nM at NK3 and 57.5 nM on NK1.
The like results for `Cc1ccc(OCC(=O)N2CCC3(CC2)CCN([C@H]2CCN(C(=O)c4cc(C(F)(F)F)cc(C(F)(F)F)c4)[C@H](Cc4ccccc4)C2)CC3)c(C)c1` [Compound 74] were, in that order, more than 10000 nM, more than 10000 nM and 389 nM.
With `O=C(C1CC1)N1CCCC2(CCN([C@@H]3CCN(C(=O)c4cc(C(F)(F)F)cc(C(F)(F)F)c4)[C@H](Cc4ccccc4)C3)CC2)C1` [Compound 173], the figures for the IC50 at NK2, at NK3 and on NK1 were approximately 1620 nM, more than 10000 nM and 30.9 nM, respectively.
The like results for `O=C(c1cc(C(F)(F)F)cc(C(F)(F)F)c1)N1CC[C@H](N2CCC3(CCN(C(=O)C4(c5ccccc5)CCCC4)CC3)CC2)C[C@H]1Cc1ccccc1` [Compound 90] were, in that order, 5370 nM, more than 10000 nM and 355 nM.
For `O=C(C1CCN(C(=O)c2cc(C(F)(F)F)cc(C(F)(F)F)c2)C(Cc2ccccc2)C1)N1CCC2(CCN(Cc3ccccc3)CC2)CC1` (stereo not drawn) [Compound 185], the IC50 at NK2 was 5500 nM; at NK3, more than 10000 nM; at NK1, 81.3 nM.
For the compound `O=C(Cc1ccsc1)N1CCC2(CC1)CCN([C@H]1CCN(C(=O)c3cc(C(F)(F)F)cc(C(F)(F)F)c3)[C@H](Cc3ccccc3)C1)CC2` [Compound 76], the IC50 was 1150 nM at NK2, 3980 nM at NK3 and 25.7 nM on NK1.
The like results for `O=C(c1cc(C(F)(F)F)cc(C(F)(F)F)c1)N1CC[C@H](N2CCC3(CC2)CCN(S(=O)(=O)c2cc(Cl)c(Cl)cc2Cl)CC3)C[C@H]1Cc1ccccc1` [Compound 115] were, in that order, more than 10000 nM, more than 10000 nM and 490 nM.
For the compound `O=C(c1cc(C(F)(F)F)cc(C(F)(F)F)c1)N1CC[C@H](N2CCC3(CCN(C(=O)C4(c5ccccc5)CC4)CC3)CC2)C[C@H]1Cc1ccccc1` [Compound 89], the figures for the IC50 at NK2, at NK3 and at NK1 were 2510 nM, more than 10000 nM and 148 nM, respectively.
Taken in the same sequence, the figures for `O=C(c1ncccc1O)N1CCC2(CC1)CCN([C@H]1CCN(C(=O)c3cc(C(F)(F)F)cc(C(F)(F)F)c3)[C@H](Cc3ccccc3)C1)CC2` [Compound 53] were more than 10000 nM, more than 10000 nM and 138 nM.
Taken in the same sequence, the figures for `O=C1CC2(CCN1Cc1ccccc1F)CCN([C@@H]1CCN(C(=O)c3cc(C(F)(F)F)cc(C(F)(F)F)c3)[C@H](Cc3ccccc3)C1)CC2` [Compound 203] were 3390 nM, more than 10000 nM and 661 nM.
Taken in the same sequence, the figures for `Cc1nnsc1C(=O)N1CCC2(CC1)CCN([C@H]1CCN(C(=O)c3cc(C(F)(F)F)cc(C(F)(F)F)c3)[C@H](Cc3ccccc3)C1)CC2` [Compound 36] were 4270 nM, more than 10000 nM and 28.2 nM.
`Cc1ccoc1C(=O)N1CCC2(CC1)CCN([C@H]1CCN(C(=O)c3cc(C(F)(F)F)cc(C(F)(F)F)c3)[C@H](Cc3ccccc3)C1)CC2` [Compound 25]: the IC50 was 3980 nM on NK2, more than 10000 nM at NK3 and 83.2 nM at NK1.
Turning to `Cc1noc(C)c1CN1CCC2(CCN([C@@H]3CCN(C(=O)c4cc(C(F)(F)F)cc(C(F)(F)F)c4)[C@H](Cc4ccccc4)C3)CC2)CC1=O` [Compound 201], the IC50 is 2820 nM at NK2, approximately 10000 nM on NK3 and 219 nM at NK1.
